In ChEMBL document CHEMBL1201862, “PubChem BioAssay data set” (2004):
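96-well plates; 48 h exposure; 5 concentrations. Endpoints by linear interpolation between flanking doses. Not reached: highest tested concentration assigned. GI50 is the concentration that inhibits growth by half.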 Active and inactive are the calls of the source. No stated cut-off is given here; in the data, active = GI50 up to about 1.1 µM and inactive = higher.

Assays:
Assay in all cases: growth of human tumour cells (NCI), 48 h
[1] = system: SF-268
[2] = system: 786-0
[3] = system: KM12
[4] = system: HOP-92
[5] = system: MOLT-4
[6] = system: DU-145
[7] = system: OVCAR-4
[8] = system: PC-3
[9] = system: NCI-H226
[10] = system: SK-MEL-2
[11] = system: NCI-H460
[12] = system: A549
[13] = system: HT-29
[14] = system: ACHN
[15] = system: UACC-257
[16] = system: M14
[17] = system: U-251
[18] = system: SN12C
[19] = system: SNB-75
[20] = system: OVCAR-5

Compound | GI50 [1] | GI50 [2] | GI50 [3] | GI50 [4] | GI50 [5] | GI50 [6] | GI50 [7] | GI50 [8] | GI50 [9] | GI50 [10] | GI50 [11] | GI50 [12] | GI50 [13] | GI50 [14] | GI50 [15] | GI50 [16] | GI50 [17] | GI50 [18] | GI50 [19] | GI50 [20]
CCOC(CNCCC(=O)OC)OCC | > 10 µM (inactive) | > 10 µM (inactive) | > 10 µM (inactive) | > 10 µM (inactive) | > 10 µM (inactive) | > 10 µM (inactive) | > 10 µM (inactive) | > 10 µM (inactive) | > 10 µM (inactive) | > 10 µM (inactive) | > 10 µM (inactive) | > 10 µM (inactive) | > 10 µM (inactive) | > 10 µM (inactive) | > 10 µM (inactive) | > 10 µM (inactive) | > 10 µM (inactive) | > 10 µM (inactive) | > 10 µM (inactive) | –
O=c1c2ccccc2nnn1-c1n[nH]c2ccccc12 | > 100 µM (inactive) | > 100 µM (inactive) | > 100 µM (inactive) | > 100 µM (inactive) | – | > 100 µM (inactive) | > 100 µM (inactive) | > 100 µM (inactive) | – | > 100 µM (inactive) | > 100 µM (inactive) | > 100 µM (inactive) | 63.4 µM (inactive) | > 100 µM (inactive) | > 100 µM (inactive) | > 100 µM (inactive) | > 100 µM (inactive) | > 100 µM (inactive) | > 100 µM (inactive) | 13.9 µM (inactive)
CC(C)(C)C=C=C(C(C)(C)C)P(=O)(O)O | > 100 µM (inactive) | > 100 µM (inactive) | > 100 µM (inactive) | > 100 µM (inactive) | – | > 100 µM (inactive) | > 100 µM (inactive) | > 100 µM (inactive) | > 100 µM (inactive) | > 100 µM (inactive) | > 100 µM (inactive) | > 100 µM (inactive) | > 100 µM (inactive) | > 100 µM (inactive) | > 100 µM (inactive) | > 100 µM (inactive) | > 100 µM (inactive) | > 100 µM (inactive) | > 100 µM (inactive) | > 100 µM (inactive)
CC1(C)CC(=O)C2=C(C1)c1c(ccc3ccccc13)NC2c1cn(Cc2ccc(Cl)cc2)c2ccccc12 (stereo not given) | > 100 µM (inactive) | > 100 µM (inactive) | > 100 µM (inactive) | 27.7 µM (inactive) | 58.1 µM (inactive) | > 100 µM (inactive) | > 100 µM (inactive) | > 100 µM (inactive) | – | > 100 µM (inactive) | 23.9 µM (inactive) | > 100 µM (inactive) | > 100 µM (inactive) | 61.9 µM (inactive) | 94.2 µM (inactive) | > 100 µM (inactive) | 56.8 µM (inactive) | > 100 µM (inactive) | > 100 µM (inactive) | 36.5 µM (inactive)
COc1cccc(C2c3cc4c(cc3OC(N3CCCC3)C2C)OCO4)c1 (stereo not given) | 14.7 µM (inactive) | 9.62 µM (inactive) | 6.01 µM (inactive) | 2.83 µM (inactive) | – | 16.3 µM (inactive) | – | 11 µM (inactive) | – | 5.48 µM (inactive) | – | 9.2 µM (inactive) | 4.58 µM (inactive) | 8.79 µM (inactive) | 12.1 µM (inactive) | 3.96 µM (inactive) | – | 20.9 µM (inactive) | 4.99 µM (inactive) | 24.9 µM (inactive)
CC1=C(C(=O)OC(C)C)C(c2ccccc2[N+](=O)[O-])C(C(=O)OC(CO[N+](=O)[O-])CO[N+](=O)[O-])=C(C)N1 (stereo not given) | 2.51 µM (inactive) | 3.62 µM (inactive) | 3.75 µM (inactive) | – | 1.46 µM (inactive) | 5.68 µM (inactive) | 2.12 µM (inactive) | 2.14 µM (inactive) | 7.16 µM (inactive) | 2.99 µM (inactive) | 3.1 µM (inactive) | 3.09 µM (inactive) | 2.81 µM (inactive) | 3.21 µM (inactive) | 3.85 µM (inactive) | 3.74 µM (inactive) | 2.99 µM (inactive) | 3.8 µM (inactive) | 1.54 µM (inactive) | 13.8 µM (inactive)
CCOC(=O)c1c(NC(=S)Nc2ccc(C)cc2)sc2c1CCN(C)C2 | > 100 µM (inactive) | > 100 µM (inactive) | 81.7 µM (inactive) | – | > 100 µM (inactive) | > 100 µM (inactive) | – | > 100 µM (inactive) | > 100 µM (inactive) | > 100 µM (inactive) | > 100 µM (inactive) | > 100 µM (inactive) | > 100 µM (inactive) | > 100 µM (inactive) | > 100 µM (inactive) | > 100 µM (inactive) | – | > 100 µM (inactive) | < 0.01 µM (active) | > 100 µM (inactive)
O=c1c2cc(I)ccc2nc(-c2cccs2)n1/N=C/c1ccccc1 | > 100 µM (inactive) | > 100 µM (inactive) | > 100 µM (inactive) | > 100 µM (inactive) | – | > 100 µM (inactive) | > 100 µM (inactive) | > 100 µM (inactive) | > 100 µM (inactive) | 0.536 µM (active) | > 100 µM (inactive) | > 100 µM (inactive) | > 100 µM (inactive) | > 100 µM (inactive) | 79.1 µM (inactive) | > 100 µM (inactive) | > 100 µM (inactive) | > 100 µM (inactive) | > 100 µM (inactive) | > 100 µM (inactive)
COc1ccc2c3c([nH]c2c1)CCN(CCCC(=O)c1ccc(F)cc1)C3 | 16.8 µM (inactive) | 14.1 µM (inactive) | 19.7 µM (inactive) | – | 16.7 µM (inactive) | 18.7 µM (inactive) | 16.8 µM (inactive) | 12.6 µM (inactive) | 16.5 µM (inactive) | 17.5 µM (inactive) | 19.4 µM (inactive) | 17.1 µM (inactive) | 4.91 µM (inactive) | 17.1 µM (inactive) | 17.6 µM (inactive) | 15.5 µM (inactive) | 17.2 µM (inactive) | 15.9 µM (inactive) | 12.2 µM (inactive) | 13.8 µM (inactive)
COC(=O)CCC12CCC(O1)c1ccccc12 (stereo not given) | – | > 100 µM (inactive) | > 100 µM (inactive) | 92.5 µM (inactive) | > 100 µM (inactive) | > 100 µM (inactive) | > 100 µM (inactive) | > 100 µM (inactive) | > 100 µM (inactive) | – | > 100 µM (inactive) | > 100 µM (inactive) | > 100 µM (inactive) | > 100 µM (inactive) | > 100 µM (inactive) | > 100 µM (inactive) | > 100 µM (inactive) | > 100 µM (inactive) | > 100 µM (inactive) | > 100 µM (inactive)
C[N+]1(Cc2ccc(Cl)c(Cl)c2)CCCC1C1CCCN(Cc2ccc(Cl)c(Cl)c2)C1 (stereo not given) | > 100 µM (inactive) | > 100 µM (inactive) | > 100 µM (inactive) | > 100 µM (inactive) | > 100 µM (inactive) | > 100 µM (inactive) | > 100 µM (inactive) | > 100 µM (inactive) | – | > 100 µM (inactive) | > 100 µM (inactive) | > 100 µM (inactive) | > 100 µM (inactive) | > 100 µM (inactive) | > 100 µM (inactive) | > 100 µM (inactive) | > 100 µM (inactive) | > 100 µM (inactive) | > 100 µM (inactive) | > 100 µM (inactive)
c1csc(-c2cc(-c3ccsc3)c(-c3ccsc3)s2)c1 | > 100 µM (inactive) | > 100 µM (inactive) | > 100 µM (inactive) | > 100 µM (inactive) | > 100 µM (inactive) | > 100 µM (inactive) | > 100 µM (inactive) | > 100 µM (inactive) | > 10 µM (inactive) | – | > 100 µM (inactive) | > 100 µM (inactive) | > 100 µM (inactive) | > 100 µM (inactive) | > 100 µM (inactive) | > 100 µM (inactive) | > 100 µM (inactive) | > 100 µM (inactive) | > 100 µM (inactive) | > 100 µM (inactive)
CSc1nc(N)c(NC2OC(CO)C(O)C2O)c(=O)[nH]1 (stereo not given) | > 100 µM (inactive) | > 100 µM (inactive) | > 100 µM (inactive) | – | > 100 µM (inactive) | > 100 µM (inactive) | > 100 µM (inactive) | > 100 µM (inactive) | > 100 µM (inactive) | > 100 µM (inactive) | > 100 µM (inactive) | > 100 µM (inactive) | > 100 µM (inactive) | – | > 100 µM (inactive) | > 100 µM (inactive) | > 100 µM (inactive) | > 100 µM (inactive) | > 100 µM (inactive) | > 100 µM (inactive)
C#CCOC(=O)[C@@H](C)c1ccc2cc(OC)ccc2c1 | > 100 µM (inactive) | 71.9 µM (inactive) | > 100 µM (inactive) | 79.6 µM (inactive) | 32.1 µM (inactive) | > 100 µM (inactive) | 96.8 µM (inactive) | 82.6 µM (inactive) | > 100 µM (inactive) | > 100 µM (inactive) | > 100 µM (inactive) | – | – | > 100 µM (inactive) | 96.2 µM (inactive) | > 100 µM (inactive) | > 100 µM (inactive) | > 100 µM (inactive) | 34.3 µM (inactive) | > 100 µM (inactive)
Cc1ccc([S+]([O-])C[C@@]2(C(F)F)NC(=O)NC2=O)cc1 (stereo not given in full) | > 100 µM (inactive) | > 100 µM (inactive) | > 100 µM (inactive) | > 100 µM (inactive) | > 100 µM (inactive) | > 100 µM (inactive) | > 100 µM (inactive) | > 100 µM (inactive) | > 100 µM (inactive) | > 100 µM (inactive) | > 100 µM (inactive) | > 100 µM (inactive) | > 100 µM (inactive) | > 100 µM (inactive) | > 100 µM (inactive) | > 100 µM (inactive) | > 100 µM (inactive) | – | > 100 µM (inactive) | > 100 µM (inactive)
